Experimental findings from EP0385952A2, “Use of a naphthalenmethanamino derivative as antiinflammatory agent and pharmaceutical compositions containing it” (SANDOZ AG, priority 1989, dated 1990) are described below.

Data set [1] has as its system Peritoneal exudate cells of NMRI mice (macrophage population). Briefly: TPA-induced prostaglandin E₂ (PGE₂) release. As to conditions: Mus musculus, TPA 20 ng/ml, 1h, read-out: IC₅₀ for the inhibition of TPA-induced PGE₂ release. It is filed as cell-based. As to the method: Peritoneal exudate cells of NMRI mice (strain NMRI) pretreated with 1.5 ml thioglycollate ip 3 days previously are harvested by peritoneal lavage, washed in phosphate-buffered saline (PBS without Ca⁺⁺ and Mg⁺⁺) and resuspended in DMEM medium supplemented with 10 % fetal calf serum (FCS). 1x10⁶ cells in 1 ml are placed into wells of Costar-24 tissue culture plates and cells are allowed to adhere for 24 hours at 37°C and 5 % CO₂. Cells are then washed twice with PBS and the remaining, more than 95 % pure macrophage population is stimulated with 12-O-tetradecanoylphorbol-13-acetate (TPA) (20 ng/ml, 1h) in DMEM medium without FCS. Conditioned media are centrifuged and PGE₂ levels are determined using a ¹²⁵I radioimmunoassay. Samples are assayed in duplicate. Inhibition of PGE₂ release by test compounds is calculated as percent inhibition compared to the controls.

In data set [2] the test system is 12 + 15-lipoxygenase. Kind of data set: 12 + 15-lipoxygenase inhibition (neutrophil functions). It is filed as cell-based. As to conditions: read-out: IC₅₀ for 12 + 15-lipoxygenase.
Data set [3] relates to Cyclooxygenase (prostaglandin synthetase). Briefly: Cyclooxygenase inhibition. It is filed as biochemical. Conditions: at 100 µM.
Data set [4] deals with NMRI mice. Kind of data set: Arachidonic acid-induced pinnal swelling in mice (irritant contact dermatitis, 2.1.1.). Type of data set: in vivo. Conditions: prophylactic, epicutaneous, pinnal weight. As to the method:
(§1) Skin irritation with arachidonic acid or cantharidin is often used to experimentally induce inflammation in order to evaluate the anti-inflammatory activity of a compound [see e.g. Inflammation 8 (1984) 134-135; 10 (1986) 205-214]. NMRI mice (8 animals per group) receive 10 µl of a 10 % solution of arachidonic acid [J.M. Young et al., J. Invest. Derm. 82 (1986) 367-371] in acetone or, respectively, 0.08 % cantharidin [K.E. Swingle et al., Arch. Int. Pharmacodyn. Ther. 254 (1981) 168-176] in acetone applied to the medial and lateral surface of the right external ear. Treatment is performed either prophylactically 30 minutes before irritation (arachidonic acid) or, respectively, either simultaneously with the application of irritant solution or therapeutically 20 minutes after irritation (cantharidin), by a single epicutaneous application of the test compound dissolved in a mixture of N,N-dimethylacetamide, acetone and alcohol (2:2:4). The evaluation of the test group is effected by comparison with a control group of animals having received on the right ear lobe only the carrier substance or the irritant solution. The animals are killed 1.5 hours (arachidonic acid) or, respectively, 17 hours (cantharidin) after application of the irritant and efficacy in assessed by determination of the differences in auricular weight. Differences in weights (D) of right (involved) and left (uninvolved) pinnae of animals treated with test compound and arachidonic acid or cantharidin (T-group) are compared with differences in mice treated with arachidonic acid only or cantharidin only (C-group). Efficacy (%) is calculated according to the equation: [formula]

The test system of data set [5] is mice. Briefly: Croton oil-induced pinnal swelling in mice (irritant contact dermatitis, 2.1.2.). As to conditions: simultaneous, topical, pinnal weight after 6 hours. Type of data set: in vivo. The method, then: as §1
(§2) This model is similar to the above (see 2.1.1.). Skin inflammation is induced with 15 µl of 0.23 % croton oil in a mixture of dimethylacetamide, acetone and ethanol (2:4:4), or with 10 µl of 0.005 % TPA [12-O-tetradecanoylphorbol-13-acetate; Sigma] prepared in acetone with 0.5 % dimethylsulfoxide. Topical treatment is performed either simultaneously with the irritation (croton oil) or 20 minutes after the application (TPA). The test compound is prepared in DAE. Efficacy is assessed 6 hours after onset of irritation by determination of the auricular weight as described above.

For data set [6], the system named is mice. Kind of data set: TPA-induced pinnal swelling in mice (irritant contact dermatitis, 2.1.2.). It is filed as in vivo. Conditions: therapeutic, topical, pinnal weight after 6 hours. As to the method:
as §1, §2

The test system of data set [7] is guinea pigs. Kind of data set: UV-erythema model (2.2.). It is filed as in vivo. As to conditions: therapeutic, test concentration 5.0 %, topical, erythema score. As to the method:
Female guinea pigs weighing 250-300 g are used. On the day before experiment they are shorn on both flanks followed by a final dry shaving without skin irritation two hours before UV exposure. Two circular areas (10 mm diameter) on each flank are exposed 10 seconds to ultraviolet rays from […] at an intensity of 16 mW/cm² (UVA) and 500 mW/cm² (UVB). Drugs are administered topically immediately after exposure to UV light in a volume of 50 µl of 25 % ethanol and 75 %polyethylenglycol-400 to the irradiated skin areas on the right flank. Two areas on the left flank serve as vehicle control. Erythema is assessed visually 3.5 and 5.5 hours after irradiation and results expressed in scores. Changes in erythema intensity after drug administration are expressed as percentages of the scored erythema intensity in vehicle-treated areas.

A short description of data set [8]: Solubility in water. Type of data set: physicochemical. Conditions: at 25°C.

Marks after values point to notes of the source that are not given here.

On to `CN(C/C=C/c1ccc(O)cc1)Cc1cccc2ccccc12` [compound of the invention, (E)-N-methyl-N-[3-(4-hydroxyphenyl)-2-propenyl]-1-naphthalene-methanamine], for which the IC50 was 1 to 3 µM in data set [1] and 100 µM in data set [2]. Besides, the “Cyclooxygenase (prostaglandin synthetase) inhibition” value in data set [3] was “not inhibited”. Besides, the “Efficacy (%)” value in data set [4] (test concentration 1.2 %) is given as 33** %; in data set [4] (test concentration 3.6 %) it was 48*** %; in data set [5] (test concentration 1.2 %), 67** %; in data set [5] (test concentration 3.6 %), 81** %; in data set [6] (test concentration 1.2 %) it was 51%; in data set [6] (test concentration 3.6 %) it was 60*** %. Also, the “Efficacy (%)” value in data set [7] is given as 27%. The solubility (in general, the dissolved amount per volume that the medium holds) in data set [8] was less than 100 µg/mL.
